{
  "source": "patent US20220054494A1",
  "about": "“METHODS FOR TREATING BLADDER AND URETHRA DYSFUNCTION AND DISEASE” (University of Pittsburgh - Of the Commonwealth System of …, priority 2019, published 2022)",
  "key": {"[1]": {"test_system": "CYP-treated rats", "assay": "Laser Doppler bladder blood flow in CYP cystitis model", "type": "in vivo, rat", "conditions": "CYP (75 mg/kg i.p.) female Sprague Dawley rats; oral 8-AG 5 mg/kg/day starting one week prior to CYP", "method": "Animals: Female Sprague Dawley rats were employed in this example (Charles River; Wilmington, Mass.). Three groups of animals were included. Group 1 received an i.p. injection of saline and was used as a control; groups 2 and 3 received an i.p. injection of cyclophosphamide (CYP, SIGMA-ALDRICH®, St Louis, Mo., day 0, 3, 6, sacrifice day 8, 75 mg/kg, i.p.) with group 3 treated with oral 8-AG (5 mg/kg/day; starting one week prior to CYP). CYP induced bladder inflammation and is a well-established pre-clinical model for BPS/IC.\nBlood Flow Changes: Real-time bladder blood perfusion (1 mm^3 tissue) was accomplished using a BLF22D laser Doppler flowmeter (Transonic Systems, Inc) with a surface probe (TypeS-APLPHS) applied to the serosal surface of the bladder (apex and neck) wall using Doppler light shift from moving RBCs to analyze flow by the Bonner algorithm. This method gives robust, non-invasive microvascular flow signals in the bladder wall of anesthetized rats."}, "[2]": {"test_system": "p16", "assay": "Western immunoblotting, senescence marker p16", "type": "in vivo, rat", "method": "Western immunoblotting and transmission electron microscopy: Following these testing paradigms, rats were deeply anesthetized, bladders were removed, and one half of each bladder (using the smooth muscle layer) was homogenized using Lysing Matrix D in a FASTPREP-24™ instrument (MP BIOMEDICALS™, Solon, Ohio) in HBSS (5 mM KCl, 0.3 mM KH2PO4, 138 mM NaCl, 4 mM NaHO3, 0.3 mM Na2HCO3, 0.3 mM Na2HPO4, 5.6 mM glucose and 10 mM Hepes, pH 7.4) containing complete protease inhibitor cocktail (1 tablet/10 ml, ROCHE™, Indianapolis, Ind.) and phosphatase inhibitor cocktail (SIGMA®, 1:100). Whole rat kidney was also homogenized using the same procedure. After centrifugation (13000 rpm; 15 min at 4° C.), the membrane protein fraction was prepared by suspending the membrane pellets in lysis buffer containing 0.3 M NaCl, 50 mM Tris-HCl (pH 7.6), 0.5% Triton X-100, and the same concentration of protease inhibitors as above. […] The protein concentrations of the combined supernatants were determined using the PIERCE™ BCA protein assay (THERMO SCIENTIFIC™, Rockford, Ill.). […] As a loading control, total protein per sample was determined using BIO-RAD™ Stain Free SDS-PAGE gel technology. UV-activated protein fluorescence was imaged on a CHEMIDOC™ MP (BIO-RAD™). […] The volume (intensity) of each protein species was determined and normalized to total protein using Image Lab software (BIO-RAD™). […]"}},
  "note": "Entries after “also recorded” stand apart in the source; their conditions may differ.",
  "data": [
    {"smiles": "Nc1nc2[nH]c(N)nc2c(=O)[nH]1", "note": "[8-AG, 8-Aminoguanine]", "values": [
      {"measurement": "bladder blood flow (CYP-induced hyperemia)", "setting": "[1]", "result": "abolished; also recorded: reversed to a control state"},
      {"measurement": "senescence marker p16 in bladder smooth muscle", "setting": "[2]; aged Fisher 344 rats, 8-AG 5 mg kg/day via drinking water, 1 month", "result": "restored to a younger state; also recorded: restored to levels similar to the younger state"},
      {"measurement": "senescence marker p16 in detrusor smooth muscle", "setting": "[2]; aged rats, oral 8-AG 5 mg/kg/day, 6 weeks", "result": "levels similar to the younger state; also recorded: restored these biomarkers to that of a younger state"}
    ]}
  ]
}
